Assay results as given in the NIST ThermoML archive (doi:10.1016/j.jct.2013.04.013).
± gives the expanded uncertainty stated by the source.

Tests used:
[1] = 101.33 kPa, Liquid; for thermal conductivity: Hot wire method; for viscosity: Cone and plate viscometry
[2] = molar heat capacity at constant pressure; settings: 101.33 kPa, Liquid, Small sample (50 mg) DSC

CCCCCCCCCCCCCC[P+](CCCCCC)(CCCCCC)CCCCCC.FC(F)(F)C(F)(F)[P-](F)(F)(F)(C(F)(F)C(F)(F)F)C(F)(F)C(F)(F)F
thermal conductivity ([1]; 282.19 K): 0.126 ± 0.02 W/m/K | thermal conductivity ([1]; 292.99 K): 0.125 ± 0.02 W/m/K | thermal conductivity ([1]; 298.41 K): 0.125 ± 0.02 W/m/K | thermal conductivity ([1]; 303.54 K): 0.125 ± 0.02 W/m/K | thermal conductivity ([1]; 314.37 K): 0.123 ± 0.02 W/m/K | thermal conductivity ([1]; 325.65 K): 0.123 ± 0.02 W/m/K | thermal conductivity ([1]; 334.58 K): 0.123 ± 0.02 W/m/K | thermal conductivity ([1]; 344.18 K): 0.123 ± 0.02 W/m/K | thermal conductivity ([1]; 355.07 K): 0.121 ± 0.02 W/m/K

CC(CC(C)(C)C)CP(=O)([O-])CC(C)CC(C)(C)C.CCCCCCCCCCCCCC[P+](CCCCCC)(CCCCCC)CCCCCC
thermal conductivity ([1]; 282.47 K): 0.137 ± 0.02 W/m/K | thermal conductivity ([1]; 292.94 K): 0.136 ± 0.02 W/m/K | thermal conductivity ([1]; 298.04 K): 0.135 ± 0.02 W/m/K | viscosity ([1]; 298.15 K): 847.3 mPa·s | thermal conductivity ([1]; 303.15 K): 0.135 ± 0.02 W/m/K | viscosity ([1]; 313.15 K): 568.54 mPa·s | thermal conductivity ([1]; 313.45 K): 0.133 ± 0.02 W/m/K | viscosity ([1]; 323.15 K): 387.46 mPa·s | thermal conductivity ([1]; 323.45 K): 0.132 ± 0.02 W/m/K | viscosity ([1]; 333.15 K): 125.61 mPa·s | thermal conductivity ([1]; 333.55 K): 0.131 ± 0.02 W/m/K | thermal conductivity ([1]; 343.59 K): 0.131 ± 0.02 W/m/K | thermal conductivity ([1]; 353.62 K): 0.131 ± 0.02 W/m/K | molar heat capacity at constant pressure ([2]; 293.15 K): 1619.2 ± 69 J/K/mol | molar heat capacity at constant pressure ([2]; 298.15 K): 1634.7 ± 70 J/K/mol | molar heat capacity at constant pressure ([2]; 303.15 K): 1644.7 ± 70 J/K/mol | molar heat capacity at constant pressure ([2]; 308.15 K): 1655.6 ± 70 J/K/mol | molar heat capacity at constant pressure ([2]; 313.15 K): 1667.2 ± 70 J/K/mol | molar heat capacity at constant pressure ([2]; 318.15 K): 1678 ± 71 J/K/mol | molar heat capacity at constant pressure ([2]; 323.15 K): 1688 ± 72 J/K/mol | molar heat capacity at constant pressure ([2]; 328.15 K): 1698.1 ± 72 J/K/mol | molar heat capacity at constant pressure ([2]; 333.15 K): 1708.2 ± 73 J/K/mol | molar heat capacity at constant pressure ([2]; 338.15 K): 1717.4 ± 73 J/K/mol | molar heat capacity at constant pressure ([2]; 343.15 K): 1725.9 ± 73 J/K/mol | molar heat capacity at constant pressure ([2]; 348.15 K): 1736 ± 73 J/K/mol | molar heat capacity at constant pressure ([2]; 353.15 K): 1745.3 ± 74 J/K/mol | molar heat capacity at constant pressure ([2]; 358.15 K): 1754.5 ± 74 J/K/mol | molar heat capacity at constant pressure ([2]; 363.15 K): 1763.8 ± 75 J/K/mol

CCCCCCCCCCCCCC[P+](CCCCCC)(CCCCCC)CCCCCC.O=S(=O)([N-]S(=O)(=O)C(F)(F)F)C(F)(F)F
thermal conductivity ([1]; 285.65 K): 0.139 ± 0.02 W/m/K | thermal conductivity ([1]; 293.14 K): 0.138 ± 0.02 W/m/K | thermal conductivity ([1]; 297.72 K): 0.137 ± 0.02 W/m/K | thermal conductivity ([1]; 302.37 K): 0.137 ± 0.02 W/m/K | thermal conductivity ([1]; 313.04 K): 0.135 ± 0.02 W/m/K | thermal conductivity ([1]; 323.58 K): 0.134 ± 0.02 W/m/K | thermal conductivity ([1]; 333.55 K): 0.135 ± 0.02 W/m/K | molar heat capacity at constant pressure ([2]; 333.15 K): 1367.6 ± 58 J/K/mol | molar heat capacity at constant pressure ([2]; 338.15 K): 1372.2 ± 58 J/K/mol | molar heat capacity at constant pressure ([2]; 343.15 K): 1378.3 ± 59 J/K/mol | molar heat capacity at constant pressure ([2]; 348.15 K): 1386.7 ± 59 J/K/mol | molar heat capacity at constant pressure ([2]; 353.15 K): 1395.1 ± 59 J/K/mol | molar heat capacity at constant pressure ([2]; 358.15 K): 1403.5 ± 60 J/K/mol | molar heat capacity at constant pressure ([2]; 363.15 K): 1413.4 ± 60 J/K/mol | molar heat capacity at constant pressure ([2]; 368.15 K): 1426.4 ± 60 J/K/mol | molar heat capacity at constant pressure ([2]; 373.15 K): 1435.6 ± 61 J/K/mol | molar heat capacity at constant pressure ([2]; 378.15 K): 1440.9 ± 61 J/K/mol | molar heat capacity at constant pressure ([2]; 383.15 K): 1450.1 ± 62 J/K/mol | molar heat capacity at constant pressure ([2]; 388.15 K): 1457.7 ± 62 J/K/mol | molar heat capacity at constant pressure ([2]; 393.15 K): 1465.4 ± 62 J/K/mol | molar heat capacity at constant pressure ([2]; 398.15 K): 1473.8 ± 63 J/K/mol | molar heat capacity at constant pressure ([2]; 403.15 K): 1480.6 ± 63 J/K/mol | molar heat capacity at constant pressure ([2]; 408.15 K): 1488.3 ± 63 J/K/mol | molar heat capacity at constant pressure ([2]; 413.15 K): 1495.9 ± 63 J/K/mol | molar heat capacity at constant pressure ([2]; 418.15 K): 1502.8 ± 63 J/K/mol | molar heat capacity at constant pressure ([2]; 423.15 K): 1509.7 ± 64 J/K/mol | molar heat capacity at constant pressure ([2]; 428.15 K): 1517.3 ± 64 J/K/mol | molar heat capacity at constant pressure ([2]; 438.15 K): 1533.4 ± 65 J/K/mol | molar heat capacity at constant pressure ([2]; 443.15 K): 1536.4 ± 65 J/K/mol | molar heat capacity at constant pressure ([2]; 448.15 K): 1542.5 ± 66 J/K/mol | molar heat capacity at constant pressure ([2]; 453.15 K): 1550.2 ± 66 J/K/mol | molar heat capacity at constant pressure ([2]; 458.15 K): 1556.3 ± 66 J/K/mol | molar heat capacity at constant pressure ([2]; 463.15 K): 1560.9 ± 66 J/K/mol

CCCC[P+](C)(CCCC)CCCC.COS(=O)(=O)[O-] [tributylmethylphosphonium methyl sulfate]
thermal conductivity ([1]; 283.34 K): 0.157 ± 0.02 W/m/K | thermal conductivity ([1]; 293.28 K): 0.156 ± 0.02 W/m/K | thermal conductivity ([1]; 298.36 K): 0.155 ± 0.02 W/m/K | thermal conductivity ([1]; 303.45 K): 0.155 ± 0.02 W/m/K | thermal conductivity ([1]; 313.5 K): 0.153 ± 0.02 W/m/K | thermal conductivity ([1]; 323.6 K): 0.153 ± 0.02 W/m/K | thermal conductivity ([1]; 333.58 K): 0.153 ± 0.02 W/m/K | thermal conductivity ([1]; 343.61 K): 0.153 ± 0.02 W/m/K | thermal conductivity ([1]; 353.51 K): 0.153 ± 0.02 W/m/K
